In patent US20180171411A1, “GFRalpha1 AS A BIOMARKER FOR CISPLATIN-INDUCED CHEMORESISTANCE AND METASTASIS” (THE BOARD OF REGENTS OF THE UNIVERSITY OF TEXAS SYSTEM, priority 2015, published 2018):

Experiments:
[1] = system: GFRα1 mRNA in MG-63 and U-2 OS cells; assay: Quantitative real-time PCR of GFRα1 mRNA after cisplatin; type: cell-based, human; conditions: both cell lines; dose and time dependent
Experimental: FIG. 1. Cisplatin induces GFRα1 expression in osteosarcoma cells. (a-c) Immunoblot analysis of osteosarcoma cell lysates with antibodies specific for GFRα1 and β-actin. (a) MG-63 and U-2 OS cells were treated with doxorubicin (5 μM), cisplatin (20 μM), or methotrexate (1 mM) for 24 hr. Immunoblot analysis of GFRα1 (left) and quantification of GFRα1 expression (right) after treatment of chemotherapeutic agents. (b) MG-63 and U-2 OS cells were treated with different concentrations of cisplatin for 24 hr. (c) MG-63 and U-2 OS cells were treated with cisplatin (20 μM) and collected at the indicated time. (d and e) Quantitative real-time PCR of GFRα1 mRNA expression after cisplatin treatment. Representative images (top) and quantitative analysis (bottom) of GFRα1 mRNA expression. The values are presented as a mean±s.d.m (n=3). ** denotes p<0.05 by t-test. (d) MG-63 and U-2 OS cells were treated with different concentrations of cisplatin for 24 hr. (e) MG-63 and U-2 OS cells were treated with cisplatin (20 μM) and collected at the indicated time.
Quantitative real-time (RT)-PCR (qPCR). Total RNA was collected and isolated from cell lines using the RNeasy system according to the manufacturer's protocol (Qiagen, Hilden, Germany). cDNA was generated from a 30 μl reaction containing total RNA (3 μg), reverse transcriptase and oligo dT primers (Promega, Madison, Wis.). […]

[2] = system: cytoplasmic HMGB1 in MG-63/GFRα1 tumors; assay: Immunofluorescence of HMGB1 in xenograft tumors; type: in vivo, mouse; conditions: tumors of MG-63/GFRα1 cell grafted mice
Experimental: FIG. 5. GFRα1-mediated autophagy promotes chemoresistance and tumor growth in vivo. (a) BALB/c nude mice (n =40) were injected with MG-63 cells that were transfected with either control or GFRα1 expressing vector. Tumor volume was measured every 3 or 4 days. Data are shown as mean±SEM. ** p<0.05. (b) BALB/c nude mice (n=20) were injected with MG-63 cells that were transfected with either control or GFRα1 shRNA. Tumor volume was measured every 3 or 4 days. Data are shown as mean±SEM. ** p<0.05. (c) Tumors that were generated from mice injected with MG-63 cells containing GFRα1 expressing vector were directly injected with PBS, CQ, cisplatin, or cisplatin+CQ. Tumor volume was measured every 4 days. […] Right, quantitative analysis of percentage of cytoplasmic HMGB1-positive cells in HMGB1-positive tumors. […] Right, quantitative analysis of percentage of TUNEL-positive cells in HMGB1-positive tumors. […]
Immunohistochemistry. […] For immunofluorescence, immunohistochemistry of patient tissues and mouse tumors are incubated with the Alexa Fluor 488- and 647-conjugated secondary antibodies (Invitrogen), and nuclei were counterstained with DAPI (Sigma-Aldrich) Immunofluorescence was detected by confocal microscopy. […] Thus, marked plus (+) was considered to be positive immunoreactivity, while that minus (−) was considered to be negative immunoreactivity (not detected). […]

Structure (SMILES): N.N.[Cl][Pt][Cl] [cisplatin, Cis-Diamineplatinum(II) dichloride]
- level of GFRα1 mRNA [1]: increased
- HMGB1 expression localized in the cytoplasm [2]: significant increase
